# Results as given in publication PMC12736451, “Autophagy-Targeting Stapled Peptide Utilizes Macropinocytosis for Cell Entry to Potentiate Anti-Proliferative Autosis in Small-Cell Lung Cancer” (Pharmaceutics, 2025).
# pIC50: −log10 of the molar value. Positions of bridges follow the written chain, without caps; N, C: chain ends. Non-standard residues stand in square brackets, D forms with d. Residues, ends and D or L forms follow the SMILES beside them. *: point of attachment. R8 = C=CCCCCCC[C@@](C)(N)C(=O)O; S5 = C=CCCC[C@](C)(N)C(=O)O; Cbz = O=C(OCc1ccccc1)*; CH2F = FC*
# How the values were obtained:
# SHP-77 cells [1] = settings: for rescue of Tat-SP4-induced cell death by uptake pathway inhibitor / rescue of Tat-SP4-induced cell death by cell death program inhibitor: n = 3; for rescue of Tat-SP4-induced cell death by cell death program inhibitor: 10 μM Tat-SP4, 24 h, trypan blue exclusion
# Procedure: (§1) Cell viability was measured by a trypan blue exclusion assay following the standard protocol provided by the manufacturer. SHP-77 cells and H146 cells were plated into 96-well plates at a density of 2 × 10^4 cells/well. Upon cell attachment, cells were treated with the graded concentrations of Tat-SP4 for 24 h. The IC50 value was calculated from the curve fitted to concentration–response data sets. All experiments were repeated in triplicate, and the mean was calculated. For the 5-day growth curve, cells were seeded into a 24-well plate at 2.5 × 10^4 cells/well for SHP-77 and H146 cells. Cells were treated with 10 μM Tat-SP4. Cells were allowed to grow for up to 5 days post-treatment, and the viable cell number was checked every 24 hours with the trypan blue exclusion assay. For cell death rescue assays, SHP-77 cells were first plated overnight in 96-well plates. Tat-SP4 was added to the cells, together with inhibitors for apoptosis, ferroptosis, necroptosis, or autosis. After 24 h treatment, the cell viability was measured by the trypan blue exclusion assay.
# Figure 3 Cell death induced by Tat-SP4 is rescued by an inhibitor of autosis but not by inhibitors for other cell death programs. (A) Flow cytometry analysis using Annexin V FITC-PI staining was conducted on SHP-77 cells after indicated hours of treatment with the Tat-SP4. […] (B) In the absence or presence of Z-VAD-FMK, SHP-77 cells treated with Tat-SP4 or cisplatin for 24 h. (C) SHP-77 cells were pretreated with ferroptosis inhibitor, ferrostatin-1, followed by 10 μM Tat-SP4 or 5 μM Erastin treatment for 24 h. […] (D) SHP-77 cells were treated with Tat-SP4 at 10 μM for 24 h, either in the presence or absence of necrostatin-1, respectively. […] (E) SHP-77 cells were pretreated with digoxin for 2 h, followed by the treatment of Tat-SP4 for 12 h. Cell viability was measured by trypan blue exclusion assay. Data are presented as mean ± SEM (n = 3). ** p < 0.01, **** p < 0.0001; unpaired t-test. TEXT PRINTED IN THE PICTURE: (A) Tat-SP4: Q1-UL 15.9% (10μM; 3h); Dead 30.5% (10μM; 3h); Live 48.8% (10μM; 3h); Apoptotic 4.8% (10μM; 3h); Q1-UL 51.4% (10μM; 6h); Dead 4.7% (10μM; 6h); Live 43.6% (10μM; 6h); Apoptotic 0.2% (10μM; 6h) DOUBTS OF THE COPYIST ABOUT THIS PICTURE: Tat-SP4 3h, Q1-UL 15.9%: very small print, 5 and 9 uncertain / Tat-SP4 3h, Dead 30.5%: very small print, 3 and 5 uncertain / Tat-SP4 3h, Live 48.8%: very small print, partly overlaid by the plot edge, both 8s uncertain / Tat-SP4 3h, Apoptotic 4.8%: very small print, 8 uncertain / Tat-SP4 6h, Q1-UL 51.4%: very small print, 5 uncertain / Tat-SP4 6h, Dead 4.7%: very small print, digits uncertain / Tat-SP4 6h, Live 43.6%: very small print, 3 and 6 uncertain / Tat-SP4 6h, Apoptotic 0.2%: very small print, digits uncertain
# Figure 5 The cellular uptake process of Tat-SP4 is energy- and macropinocytosis-dependent. (A) Representative flow cytometry plot of SHP-77 cells stained with Rhod-SP4 at 10 μM at 4 °C, room temperature, and 37 °C for an hour, respectively. The fluorescence intensity of Rhod-SP4 increases with increasing temperature. (B) Mean fluorescence intensity of Rhod-SP4 from (A). The bar graph represents a single experiment without replicates. (C) Representative flow cytometry plot of SHP-77 cells stained with Rhod-SP4 at 10 μM at 37 °C for an hour, in the presence or absence of various inhibitors. AM, Amiloride; MβCD, Methyl-beta cyclodextrin. Cells were pretreated with different inhibitors for 30 min, followed by staining with Rhod-SP4 at 10 μM. (D) Mean fluorescence intensity of Rhod-SP4 from (C). The bar graph represents a single experiment without replicates. (E–G) Assess the effect of different inhibitors of cell-penetrating peptides uptake pathways on Tat-SP4-induced cell death. […] Data are presented as mean ± SEM (n = 3). * p < 0.05; unpaired t-test.
# in vitro = settings: human, Beas-2B cells (normal bronchial epithelial)
# Procedure: as §1
# (§2) (A) Trypan blue exclusion assay to assess the cytotoxicity IC50 of Tat-SP4 in SHP-77 and H146 cell lines. Cells were treated with Tat-SP4 at a series of concentrations for 24 h. The number of viable cells was determined manually using a hemocytometer and the trypan blue dye exclusion method.
# SHP-77 xenograft = SHP-77 xenograft model; assay type: in vivo; settings: male nude mice, 40 mg/kg/day i.p., heart, liver, spleen, lung, kidney, stomach
# Procedure: Animal experiments were carried out according to the guidelines of the Centralized Animal Facilities of the Hong Kong Polytechnic University. Male nude mice, 5–6 weeks in age, were purchased from the Centralized Animal Facilities of the Hong Kong Polytechnic University. Exponentially growing SHP-77 cells were harvested and resuspended in PBS with a concentration of 1 ×10^8 cells per ml. Mixed cell suspensions with Matrigel (Corning) in a 1:1 volume ratio with 5 × 10^5 SHP-77 cells were injected subcutaneously into the right-lower back of the mice. The tumor volume was calculated by the equation of Length × Width × Width/2. Mice were divided randomly into two groups (8 animals/group) when the tumor volume reached 50–60 mm^3. Tat-SP4 was administered intraperitoneally at 40 mg/kg every day, while PBS was administered to mice in the control group. The tumor volume was measured every other day. Treatments were continued until the tumor volume in the mice in the control group reached the maximum volume allowable according to the Centralized Animal Facilities of the Hong Kong Polytechnic University. At the end of the experiment, mice were sacrificed, and both tumors and vital organs were harvested for analysis. Tumor weights were measured after resection. […]
# Figure 7 The anti-proliferative efficacy of Tat-SP4 in the SHP-77 xenograft model. […] The tumor volume was recorded every other day. […]
# H146 cells = experiment: Trypan blue exclusion cell viability assay, 24 h; assay type: cell-based; settings: 24 h treatment, triplicate, mean, read-out: cytotoxicity IC50
# Procedure: as §1, §2
# SHP-77 cells [2] = experiment: Trypan blue exclusion cell viability assay, 24 h; assay type: cell-based; settings: 24 h treatment, triplicate, mean, read-out: cytotoxicity IC50
# Procedure: as §1, §2
# SHP-77 cells [3] = experiment: Intracellular Ca2+ imaging with genetically encoded indicators; assay type: cell-based; settings: 10 µM digoxin pretreatment 1 h, then 10 µM Tat-SP4
# Procedure: Genetically encoded Ca^2+ indicators used in this study include mito-GCaMP5G, cyto-RCaMP1h, and G-CEPIA1er. SHP-77 cells were plated in 6-well plates to allow transfection. Cells were transfected with either mito-GCaMP5G, cyto-RCaMP1h, or G-CEPIA1er cDNA using Lipofectamine 2000 and incubated for 36 h. After transfection, cells were collected and evenly distributed into 24-well plates in HBSS buffer (Gibco) for imaging. Time-lapse fluorescence imaging was performed using an Olympus inverted epifluorescence microscope equipped with a ×20 objective and appropriate excitation/emission filter sets. Images were acquired every 3 s.
# To monitor subcellular Ca^2+ dynamics, SHP-77 cells expressing mito-GCaMP5G, cyto-RCaMP1h, or G-CEPIA1er were imaged to capture Ca^2+ fluctuations in the mitochondria, cytosol, and endoplasmic reticulum, respectively. Tat-SP4 or other agonists were applied 60 s after the start of imaging. Fluorescence signals were quantified as ΔF/F0, where ΔF represents the change in fluorescence at each time point and F0 denotes the baseline fluorescence.
# (A,B) SHP-77 cells were transfected with cyto-RCaMP1h (A) or mito-GCaAMP5G (B) for 36 h. […] SHP-77 cells were pretreated with 10µM digoxin for 1 h, followed by the stimulation of Tat-SP4.
# SHP-77 cells [4] = experiment: Seahorse XF Mito Stress Test, oxygen consumption rate; assay type: cell-based; settings: digoxin pretreatment followed by Tat-SP4
# Procedure: Oxygen consumption in intact cells was assessed using an XFe24 Extracellular Flux Analyzer (Agilent, Santa Clara, CA, USA) following the manufacturer’s standard protocol. Briefly, one day prior to the experiment, an XF24 cell culture microplate was coated with 100 µg/mL poly-lysine and incubated in a CO2 incubator at 37 °C. On the same day, 1 mL of XF calibrant was added to each well of the utility plate to hydrate the sensor, and the XF24 sensor cartridge was incubated overnight in a non-CO2 incubator at 37 °C. On the day of the experiment, the coated XF24 cell culture microplate was washed with PBS and then allowed to air dry. Then, SHP-77 cells were seeded at a density of 1.5 × 10^5 cells per well in the coated XF24 cell culture microplate with the XF assay medium containing 1 mM sodium pyruvate, 2 mM glutamine, and 10 mM glucose and incubated for 1 h in a non-CO2 incubator at 37 °C.
# Figure 4 Tat-SP4 impairs mitochondrial function and OXPHOS activity. […] Cells were stained with TMRM for 30 min and analyzed using flow cytometry. […] Fluorescence intensity is directly proportional to the amount of ROS in the cell. (C) OCR was measured using the Mito Stress Test with Agilent Seahorse Analyzer. […] (D) Quantification of basal maximum respiration changes respiration after Tat-SP4 treatment and in (A). **** p < 0.0001. […]
molecule,measurement,setting,value
Heparin,rescue of Tat-SP4-induced cell death by uptake pathway inhibitor,SHP-77 cells [1],readily rescued cell death
CC(=O)N[C@@H](Cc1ccc(O)cc1)C(=O)NCC(=O)N[C@@H](CCCNC(=N)N)C(=O)N[C@@H](CCCCN)C(=O)N[C@@H](CCCCN)C(=O)N[C@@H](CCCNC(=N)N)C(=O)N[C@@H](CCCNC(=N)N)C(=O)N[C@@H](CCC(N)=O)C(=O)N[C@@H](CCCNC(=N)N)C(=O)N[C@@H](CCCNC(=N)N)C(=O)N[C@@H](CCCNC(=N)N)C(=O)N[C@@H](CCCNC(=N)N)C(=O)N[C@@H](CC(C)C)C(=O)N[C@@H](CO)C(=O)N[C@@H](CCC(=O)O)C(=O)N[C@@H](CC(C)C)C(=O)N[C@]1(C)CCCCCCC=CCCC[C@@](C)(C(=O)N[C@@H](C)C(N)=O)NC(=O)[C@H](CCCNC(=N)N)NC(=O)[C@H](CCC(N)=O)NC(=O)[C@H](CCCCN)NC(=O)[C@H](CCC(=O)O)NC(=O)[C@H](CCCNC(=N)N)NC(=O)[C@H](CC(=O)O)NC1=O [Tat-SP4] (Ac-YGRKKRRQRRRRLSEL[R8]DREKQR[S5]A-NH2; staple 17-24),IC50 at 24 h,in vitro,94.9 µM
same,body weight and gross morphology of major organs,SHP-77 xenograft,no abnormal changes
same,pIC50,H146 cells,4.75
same,pIC50,SHP-77 cells [2],5.12
COC(=O)C[C@H](NC(=O)[C@H](C)NC(=O)[C@@H](NC(=O)OCc1ccccc1)C(C)C)C(=O)CF [Z-VAD-FMK] (Cbz-Val-Ala-Asp(OMe)-CH2F),rescue of Tat-SP4-induced cell death by cell death program inhibitor,SHP-77 cells [1],had no effect
same,rescue of cisplatin-induced apoptotic cell death,SHP-77 cells [1]; cisplatin 24 h,rescued
CCOC(=O)c1ccc(NC2CCCCC2)c(N)c1 [Ferrostatin-1],rescue of Tat-SP4-induced cell death by cell death program inhibitor,SHP-77 cells [1],did not rescue
CN1C(=O)C(Cc2c[nH]c3ccccc23)NC1=S (stereo not shown) [Necrostatin-1],rescue of Tat-SP4-induced cell death by cell death program inhibitor,SHP-77 cells [1],did not rescue
Methyl-beta-cyclodextrin [MβCD],rescue of Tat-SP4-induced cell death by uptake pathway inhibitor,SHP-77 cells [1],showed no such effect
"C[C@H]1O[C@@H](O[C@H]2[C@@H](O)C[C@H](O[C@H]3[C@@H](O)C[C@H](O[C@H]4CC[C@@]5(C)[C@H](CC[C@@H]6[C@@H]5C[C@@H](O)[C@]5(C)[C@@H](C7=CC(=O)OC7)CC[C@]65O)C4)O[C@@H]3C)O[C@@H]2C)C[C@H](O)[C@@H]1O [digoxin, Digoxin]",effect on Ca2+ influx triggered by Tat-SP4 (cyto-RCaMP and mito-GCaMP5G),SHP-77 cells [3],completely abolished
same,basal and maximum OCR levels after Tat-SP4 with digoxin pretreatment,SHP-77 cells [4],comparable to those for untreated controls
"N=C(N)NC(=O)c1nc(Cl)c(N)nc1N [amiloride, Amiloride]",rescue of Tat-SP4-induced cell death by uptake pathway inhibitor,SHP-77 cells [1],readily rescued cell death
